Blank lines part the entries; values can stand above or below the molecule they belong to.
Tests used:
allergic reaction = conditions: known from Matsushita et al. 1998, various experimental models; cited from earlier work
[1] = cited from earlier work
sleep condition = conditions: administered in the ventricle of the brain of a mouse; cited from earlier work
hematopoietic PGDS = hematopoietic PGDS (Homo sapiens, UniProt O60760); experiment: PGDS enzymatic activity: conversion of PGH2 to PGD2 (confirmation of inhibitors); format: biochemical; conditions: metal ion in center of PGDS dimer
Sequence of hematopoietic PGDS (O60760 whole entry): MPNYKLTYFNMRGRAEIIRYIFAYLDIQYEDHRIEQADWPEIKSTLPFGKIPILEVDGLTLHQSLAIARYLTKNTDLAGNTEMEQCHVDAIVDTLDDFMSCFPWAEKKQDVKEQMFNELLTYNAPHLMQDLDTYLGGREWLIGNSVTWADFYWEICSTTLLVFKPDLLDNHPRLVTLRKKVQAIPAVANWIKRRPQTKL
Excerpt: After a candidate compound for inhibition of hematopoietic PGDS is thus selected, the selected compound is contacted with the enzyme in the presence of the substrate (prostaglandin H2) to confirm the compound can inhibit the enzymatic activity (Shimizu, T., Yamamoto, S., and Hayaishi, O. (1979). Purification and properties of prostaglandin D synthase from rat brain. J. Biol. Chem. 254, 5222-5228). The measurement of enzymatic activity is, for example, carried out as follows: The substrate [1-^14C]prostaglandin(PG)H2 is prepared by reacting [1-^14C]arachidonic acid with cyclooxygenase. Since PGH2 is easily decomposed in aqueous solution (half-life: about 5 minutes), it is dried and stored at a low temperature (−80° C.). […] After the development, radioactivity of PGD2 fraction and other fraction are measured and the enzyme activity is calculated from the ratio of conversion to PGD2.
Alternatively, enzyme reaction is carried out using commercially available non-labeled PGH2. After the reaction, PGH2 is decomposed to 12(S)-hydroxy-8,10-trans-5-cis-heptadecatrienolic acid with the treatment by FeCl2 before quantifying with reverse phase HPLC using 11-β-PGE2 as an internal standard or commercially available ELISA to quantify PGD2.

human hematopoietic PGDS = biological target: T1, human hematopoietic PGDS (Homo sapiens, UniProt O60760, N144M); experiment: Glutathione binding/affinity to PGDS with metal ion; conditions: metal ion in center of PGDS dimer
T1 construct: made in house; host or cells: Escherichia coli BL21 (DE-3), plasmid pT7-7hPGDS
T1 sequence (O60760 2-199 N144M): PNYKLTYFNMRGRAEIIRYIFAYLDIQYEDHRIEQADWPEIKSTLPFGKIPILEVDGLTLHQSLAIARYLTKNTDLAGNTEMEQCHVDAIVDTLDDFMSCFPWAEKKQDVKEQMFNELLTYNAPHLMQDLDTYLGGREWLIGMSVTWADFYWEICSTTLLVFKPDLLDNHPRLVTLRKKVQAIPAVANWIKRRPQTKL

Molecule: c1ccc(C(OC2CCN(CCCc3nnn[nH]3)CC2)c2ccccc2)cc1 [HQL-79, 4-benzhydryloxy-1-{3-(1H-tetrazol-5-yl)-propyl}piperidine]
anti-allergic activity (allergic reaction): anti-allergic activity

Molecule: CCCCC[C@H](O)/C=C/[C@@H]1[C@@H](C/C=C\CCCC(=O)O)[C@@H]2C[C@H]1OO2 [PGH2, prostaglandin H2]
half-life in aqueous solution [1]: about 5 minutes

Molecule: CCCCC[C@H](O)/C=C/[C@H]1C(=O)C[C@H](O)[C@@H]1C/C=C\CCCC(=O)O [prostaglandin D2, Prostaglandin D2]
effect on sleep (sleep condition): sleep is induced

influence on glutathione binding (human hematopoietic PGDS): no influence on the glutathione binding
Molecule: Calcium
effect on reaction rate of PGDS enzyme (hematopoietic PGDS): increases the reaction rate of PGDS enzyme

increase of affinity of glutathione to PGDS (human hematopoietic PGDS): more than 3 times
Molecule: Magnesium
